Measured values as given in patent US4120895A, “S-phenenyltris (iminocarbonyl) triisophthalic acid salts” (American Cyanamid Company, priority 1977, dated 1978).
Where a name gives a salt, the structure may show the parent alone.

How the values were obtained:
[1] = test system: Citrated sheep plasma (CSP); assay: in vitro anti-coagulant activity (AC); format: biochemical
Method: The sheep RBC's, kept in suspension throughout the clotting incubation time, become enmeshed in the fibrin matrix if a clot forms. Upon centrifugation of the plate, untrapped RBC's form buttons, the sizes of which correspond to the degree of clot inhibition; this providing a measure of anti-coagulant activity (AC). Sodium heparin is used as a positive control and activity is reported in wells appearing in Table I.

[2] = molecular target: T1, activated human C1 (Homo sapiens, UniProt P09871); assay: Test, Code 026 (C1 inhibitor); format: biochemical
T1 construct: fluid-phase human C2 consumption in presence of C4
T1 sequence (P09871 16-688): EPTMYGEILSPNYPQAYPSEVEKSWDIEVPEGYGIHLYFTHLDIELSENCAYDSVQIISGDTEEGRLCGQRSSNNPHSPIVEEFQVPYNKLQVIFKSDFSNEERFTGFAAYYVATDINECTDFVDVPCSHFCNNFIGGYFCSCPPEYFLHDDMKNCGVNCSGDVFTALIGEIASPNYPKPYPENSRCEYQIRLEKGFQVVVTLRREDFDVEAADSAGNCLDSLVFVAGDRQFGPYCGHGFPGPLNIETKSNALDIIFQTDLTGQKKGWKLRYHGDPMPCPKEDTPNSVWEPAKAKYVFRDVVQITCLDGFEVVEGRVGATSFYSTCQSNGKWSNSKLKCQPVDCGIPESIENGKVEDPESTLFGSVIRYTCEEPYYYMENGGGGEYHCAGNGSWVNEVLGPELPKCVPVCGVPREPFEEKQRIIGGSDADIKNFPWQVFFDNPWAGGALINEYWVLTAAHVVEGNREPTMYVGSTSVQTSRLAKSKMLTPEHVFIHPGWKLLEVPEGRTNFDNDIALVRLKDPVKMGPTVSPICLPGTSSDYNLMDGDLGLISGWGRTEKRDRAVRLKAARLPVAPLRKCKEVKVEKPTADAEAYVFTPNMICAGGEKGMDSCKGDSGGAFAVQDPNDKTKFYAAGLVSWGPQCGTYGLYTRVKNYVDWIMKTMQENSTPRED
T1 sequence (P00736 18-705 partner): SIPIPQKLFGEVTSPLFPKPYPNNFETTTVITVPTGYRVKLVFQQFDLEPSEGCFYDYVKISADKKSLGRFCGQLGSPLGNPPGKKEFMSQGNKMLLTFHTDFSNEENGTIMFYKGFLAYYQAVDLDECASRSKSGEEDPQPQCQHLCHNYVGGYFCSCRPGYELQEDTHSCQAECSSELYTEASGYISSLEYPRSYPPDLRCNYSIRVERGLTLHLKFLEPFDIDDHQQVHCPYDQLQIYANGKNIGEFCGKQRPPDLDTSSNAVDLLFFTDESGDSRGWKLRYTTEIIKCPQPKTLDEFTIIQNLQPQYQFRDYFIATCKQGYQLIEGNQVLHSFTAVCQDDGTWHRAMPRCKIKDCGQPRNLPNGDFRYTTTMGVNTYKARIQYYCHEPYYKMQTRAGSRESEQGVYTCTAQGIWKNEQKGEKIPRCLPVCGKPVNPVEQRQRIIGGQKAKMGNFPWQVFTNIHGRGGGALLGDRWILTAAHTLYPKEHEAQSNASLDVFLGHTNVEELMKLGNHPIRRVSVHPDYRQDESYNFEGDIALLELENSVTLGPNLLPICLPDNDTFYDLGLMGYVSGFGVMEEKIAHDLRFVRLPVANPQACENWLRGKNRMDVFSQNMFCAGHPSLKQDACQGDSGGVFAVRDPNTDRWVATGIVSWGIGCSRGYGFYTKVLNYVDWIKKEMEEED
T1 sequence (P02745 23-245 partner): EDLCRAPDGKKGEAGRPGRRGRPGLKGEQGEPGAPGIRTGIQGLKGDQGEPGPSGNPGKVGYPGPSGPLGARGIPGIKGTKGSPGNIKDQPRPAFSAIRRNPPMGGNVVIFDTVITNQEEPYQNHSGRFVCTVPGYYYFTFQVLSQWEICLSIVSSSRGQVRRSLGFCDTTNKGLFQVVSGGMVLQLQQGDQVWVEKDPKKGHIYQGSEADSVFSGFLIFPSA
T1 sequence (P02746 28-253 partner): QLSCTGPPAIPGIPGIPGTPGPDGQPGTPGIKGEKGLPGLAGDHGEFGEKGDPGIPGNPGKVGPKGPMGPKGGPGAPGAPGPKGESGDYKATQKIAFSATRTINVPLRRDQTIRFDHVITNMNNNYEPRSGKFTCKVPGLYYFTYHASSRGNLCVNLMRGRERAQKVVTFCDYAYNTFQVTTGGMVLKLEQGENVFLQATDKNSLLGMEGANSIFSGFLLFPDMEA
T1 sequence (P02747 29-245 partner): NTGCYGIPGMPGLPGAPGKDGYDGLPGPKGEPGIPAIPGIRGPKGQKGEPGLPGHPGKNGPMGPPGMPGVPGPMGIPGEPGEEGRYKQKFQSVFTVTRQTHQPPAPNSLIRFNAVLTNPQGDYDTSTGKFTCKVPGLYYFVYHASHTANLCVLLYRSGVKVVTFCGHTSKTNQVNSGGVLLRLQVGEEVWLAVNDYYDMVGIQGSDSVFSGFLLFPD
From the text: An active inhibitor protects C2 from C1 and C4; (ii) Test, Code 035 (C3-C9 inhibitor)-This test determines the ability of the late components of human complement (C3-C9) to lyse EAC 142 in the presence of appropriate dilutions of the test compound. An active inhibitor protects EAC 142 from lysis by human C3-C9; (iii) Test, Code 036 (C-Shunt inhibitor) - In this test human erythrocytes rendered fragile are lysed in autologous serum via the shunt pathway activated by cobra venom factor in the presence of appropriate dilutions of the test compound. Inhibition of the shunt pathway results in failure of lysis; (iv) Forssman Vasculitis Test -- Here, the well known complement dependent lesion, Forssman vasculitis, is produced in guinea pigs by intradermal injection of rabbit anti-Forssman antiserum. The lesion is measured in terms of diameter, edema and hemorrhage and the extent to which a combined index of these is inhibited by prior intraperitoneal injection of the test compound at 200 mg/kg is then reported, unless otherwise stated; (v) Forssman Shock Test -- Lethal shock is produced in guinea pigs by an i.v. injection of anti-Forssman antiserum and the harmonic mean death time of treated guinea pigs is compared with that of simultaneous controls; (vi) Complement Level Reduction Test -- In this test, the above dosed guinea pigs, or others, are bled for serum and the complement level is determined in undiluted serum by the capillary tube method of U.S. Pat. No. 3,876,376 and compared to undosed control guinea pigs; and (vii) Cap 50 Test -- Here, appropriate amounts of the test compound are added to a pool of guinea pig serum in vitro, after which the undiluted serum capillary tube assay referred to above is run. The concentration of compound inhibiting 50% is reported.

- Cl 026 Wells ([2]; Table I, two-fold serial dilution assay, higher well number indicates higher activity): +3 Wells
- In Vitro Activity, Complement Inhibiting Activity (Wells) Code 026 ([2]; Table II): +3 Wells
- Logarithmic Difference Expressed as Wells ([2]; Table II, Code 026 wells minus AC wells (base 2)): +5 Wells
SMILES: O=C(O)c1cc(C(=O)O)cc(C(=O)Nc2cc(NC(=O)c3cc(C(=O)O)cc(C(=O)O)c3)cc(NC(=O)c3cc(C(=O)O)cc(C(=O)O)c3)c2)c1 [5,5',5"-[s-Phenenyltris(iminocarbonyl)]triisophthalic acid hexasodium salt]
- AC Wells ([1]; Table I, clot inhibition, recalcified citrated sheep plasma with sheep RBC, serial dilutions): < -2 Wells
- In Vitro Activity, Anti-Coagulant Activity (Wells) AC ([1]; Table II): -2 Wells
